Experimental data published in ChEMBL document CHEMBL4808237, “Ginkgonitroside, a new nitrophenyl glycoside and bioactive compounds from Ginkgo biloba leaves controlling adipocyte and osteoblast differentiation” (2021).

Assays:
[1] = Inhibition of adipogenesis in mouse C3H10T1/2 cells assessed as lipid droplet formation at 20 uM by Oil red O staining relative to control; type: functional, C3H 10T1/2; design: scale not given: the % may be the effect or the level left
C3H 10T1/2 = assay: Induction of differentiation in mouse C3H10T1/2 cells assessed as increase […] by measuring ALP activity at 20 uM relative to control; type: functional

| Structure (SMILES) | Activity [1] [%] | fold change (FC) (C3H 10T1/2) |
| --- | --- | --- |
| O=[N+]([O-])c1ccc(O[C@@H]2O[C@H](CO)[C@@H](O)[C@H](O)[C@H]2O)cc1 | 17 |  |
| Cc1cc([N+](=O)[O-])ccc1O[C@@H]1O[C@H](CO)[C@@H](O)[C@H](O)[C@H]1O | 17 |  |
| COC(=O)c1ccc(O[C@@H]2O[C@H](CO)[C@@H](O)[C@H](O)[C@H]2O)cc1 | 17 |  |
| COc1cc([C@@H]2OC[C@@H]3[C@H]2CO[C@H]3c2ccc(O[C@@H]3O[C@H](CO)[C@@H](O)[C@H](O)[C@H]3O)c(OC)c2)ccc1O |  | 1.3 |
